Data as given in PubChem BioAssay (NCI).
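Dose response: 5 concentrations. Exposure: 48 h. Format: 96-well plates. Endpoint: linear interpolation; highest concentration if not reached. GI50: concentration for 50% inhibition of growth. TGI: total growth inhibition.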

Assays:
Experiment in all cases: inhibition of tumour cell growth, NCI panel, 48 h
BT-549 breast = system: BT-549 breast
NCI-H23 lung = system: NCI-H23 lung
SK-MEL-2 melanoma = system: SK-MEL-2 melanoma
MCF7 breast = system: MCF7 breast
KM12 colon = system: KM12 colon
T-47D breast = system: T-47D breast
CAKI-1 renal = system: CAKI-1 renal
M14 melanoma = system: M14 melanoma
SNB-75 CNS = system: SNB-75 CNS
HL-60(TB) leukemia = system: HL-60(TB) leukemia
COLO 205 colon = system: COLO 205 colon
OVCAR-4 ovarian = system: OVCAR-4 ovarian
UACC-62 melanoma = system: UACC-62 melanoma
HOP-62 NSCLC = system: HOP-62 NSCLC
SN12C renal = system: SN12C renal
K-562 leukemia = system: K-562 leukemia
A549 NSCLC = system: A549 NSCLC
LOX IMVI melanoma = system: LOX IMVI melanoma
OVCAR-8 ovarian = system: OVCAR-8 ovarian
MDA-MB-435 = system: MDA-MB-435
IGROV1 ovarian = system: IGROV1 ovarian
HCT-15 colon = system: HCT-15 colon
OVCAR-3 ovarian = system: OVCAR-3 ovarian
HOP-92 NSCLC = system: HOP-92 NSCLC
SF-295 CNS = system: SF-295 CNS
SF-539 CNS = system: SF-539 CNS
SW-620 colon = system: SW-620 colon
RPMI-8226 leukemia = system: RPMI-8226 leukemia
HT29 colon = system: HT29 colon
HCT-116 colon = system: HCT-116 colon
UACC-257 melanoma = system: UACC-257 melanoma
MOLT-4 leukemia = system: MOLT-4 leukemia
MALME-3M melanoma = system: MALME-3M melanoma
HS 578T breast = system: HS 578T breast
MDA-MB-231 breast = system: MDA-MB-231 breast
NCI/ADR-RES ovarian = system: NCI/ADR-RES ovarian
SF-268 CNS = system: SF-268 CNS
HCC-2998 colon = system: HCC-2998 colon
SR leukemia = system: SR leukemia
ACHN renal = system: ACHN renal
NCI-H460 lung = system: NCI-H460 lung
DU-145 prostate = system: DU-145 prostate
SK-OV-3 ovarian = system: SK-OV-3 ovarian
OVCAR-5 ovarian = system: OVCAR-5 ovarian
NCI-H522 lung = system: NCI-H522 lung
A498 renal = system: A498 renal
U251 CNS = system: U251 CNS
NCI-H226 lung = system: NCI-H226 lung
UO-31 renal = system: UO-31 renal
SK-MEL-28 melanoma = system: SK-MEL-28 melanoma
EKVX NSCLC = system: EKVX NSCLC
SNB-19 CNS = system: SNB-19 CNS
SK-MEL-5 melanoma = system: SK-MEL-5 melanoma
PC-3 prostate = system: PC-3 prostate
RXF 393 renal = system: RXF 393 renal
CCRF-CEM leukemia = system: CCRF-CEM leukemia
TK-10 renal = system: TK-10 renal
786-0 renal = system: 786-0 renal

## O=C1/C(=C/c2ccccc2[N+](=O)[O-])Oc2ccc(O)cc21
BT-549 breast
  GI50: 3.16 µM
  TGI: 12.5 µM
NCI-H23 lung
  GI50: 2.1 µM
  TGI: 5.17 µM
SK-MEL-2 melanoma
  GI50: 3.23 µM
  TGI: 15.1 µM
MCF7 breast
  GI50: 1.73 µM
  TGI: 5.52 µM
KM12 colon
  GI50: 4.38 µM
  TGI: 16.4 µM
T-47D breast
  GI50: 2.84 µM
  TGI: 19.4 µM
CAKI-1 renal
  GI50: 1.62 µM
  TGI: 3.83 µM
M14 melanoma
  GI50: 2.02 µM
  TGI: 4.99 µM
SNB-75 CNS
  GI50: 1.44 µM
  TGI: 42.4 µM
HL-60(TB) leukemia
  GI50: 2.99 µM
  TGI: 9.91 µM
COLO 205 colon
  GI50: 2.19 µM
  TGI: 5.88 µM
OVCAR-4 ovarian
  GI50: 2.58 µM
  TGI: 9.58 µM
UACC-62 melanoma
  GI50: 2.26 µM
  TGI: 6.2 µM
HOP-62 NSCLC
  GI50: 7 µM
  TGI: 38.9 µM
SN12C renal
  GI50: 2.52 µM
  TGI: 7.68 µM
K-562 leukemia
  GI50: 2.84 µM
  TGI: > 100 µM
A549 NSCLC
  GI50: 4.83 µM
  TGI: 26 µM
LOX IMVI melanoma
  GI50: 1.61 µM
  TGI: 3.36 µM
OVCAR-8 ovarian
  GI50: 2.86 µM
  TGI: > 100 µM
MDA-MB-435
  GI50: 2.66 µM
  TGI: 7.52 µM
IGROV1 ovarian
  GI50: 1.62 µM
  TGI: 6.18 µM
HCT-15 colon
  GI50: 1.85 µM
  TGI: 5.47 µM
OVCAR-3 ovarian
  GI50: 1.9 µM
  TGI: 3.88 µM
HOP-92 NSCLC
  GI50: 2.24 µM
  TGI: 9.33 µM
SF-295 CNS
  GI50: 4.11 µM
  TGI: 15.4 µM
SF-539 CNS
  GI50: 2.16 µM
  TGI: 5.61 µM
SW-620 colon
  GI50: 1.66 µM
  TGI: 4.12 µM
RPMI-8226 leukemia
  GI50: 2.4 µM
  TGI: 7.56 µM
HT29 colon
  GI50: 2.83 µM
  TGI: 11.3 µM
HCT-116 colon
  GI50: 1.75 µM
  TGI: 4.17 µM
UACC-257 melanoma
  GI50: 4.33 µM
  TGI: 38.3 µM
MOLT-4 leukemia
  GI50: 3.29 µM
  TGI: > 100 µM
MALME-3M melanoma
  GI50: 2.08 µM
  TGI: 5.85 µM
HS 578T breast
  GI50: 1.9 µM
  TGI: 6.35 µM
MDA-MB-231 breast
  GI50: 2.6 µM
  TGI: 9.46 µM
NCI/ADR-RES ovarian
  GI50: 2.47 µM
  TGI: 7.36 µM
SF-268 CNS
  GI50: 6.32 µM
  TGI: 35.9 µM
HCC-2998 colon
  GI50: 2.74 µM
  TGI: 7.94 µM
SR leukemia
  GI50: 2.69 µM
  TGI: > 100 µM
ACHN renal
  GI50: 2.42 µM
  TGI: 8.98 µM
NCI-H460 lung
  GI50: 3.09 µM
  TGI: 10.1 µM
DU-145 prostate
  GI50: 2.26 µM
  TGI: 5.38 µM
SK-OV-3 ovarian
  GI50: 15.3 µM
  TGI: 62.1 µM
OVCAR-5 ovarian
  GI50: 2.21 µM
  TGI: 5.72 µM
NCI-H522 lung
  GI50: 2.08 µM
  TGI: 4.83 µM
A498 renal
  GI50: 2 µM
  TGI: 16.9 µM
U251 CNS
  GI50: 2.77 µM
  TGI: 11.1 µM
NCI-H226 lung
  GI50: 1.73 µM
  TGI: 4.77 µM
UO-31 renal
  GI50: 1.95 µM
  TGI: 6.86 µM
SK-MEL-28 melanoma
  GI50: 2.37 µM
  TGI: 6.08 µM
EKVX NSCLC
  GI50: 3.77 µM
  TGI: 14.8 µM
SNB-19 CNS
  GI50: 5.24 µM
  TGI: 19 µM
SK-MEL-5 melanoma
  GI50: 8.89 µM
  TGI: 22 µM
PC-3 prostate
  GI50: 3.08 µM
  TGI: 14.2 µM
RXF 393 renal
  GI50: 1.8 µM
  TGI: 3.61 µM
CCRF-CEM leukemia
  GI50: 2.81 µM
  TGI: > 100 µM
TK-10 renal
  GI50: 3.2 µM
  TGI: 7.7 µM

## COc1ccc([C@H]2[C@H](O)C(=O)N2c2cc(OC)c(OC)c(OC)c2)cc1
BT-549 breast
  GI50: < 0.0137 µM
  TGI: 0.288 µM
NCI-H23 lung
  GI50: 0.011 µM
  TGI: > 100 µM
SK-MEL-2 melanoma
  GI50: 0.0309 µM
  TGI: > 100 µM
MCF7 breast
  GI50: < 0.01 µM
  TGI: > 100 µM
KM12 colon
  GI50: < 0.01 µM
  TGI: > 100 µM
T-47D breast
  GI50: > 100 µM
  TGI: > 100 µM
CAKI-1 renal
  GI50: < 0.01 µM
  TGI: > 100 µM
M14 melanoma
  GI50: < 0.0127 µM
  TGI: > 100 µM
SNB-75 CNS
  GI50: < 0.01 µM
  TGI: > 100 µM
HL-60(TB) leukemia
  GI50: < 0.01 µM
  TGI: < 0.0172 µM
COLO 205 colon
  GI50: < 0.0132 µM
  TGI: < 0.0209 µM
OVCAR-4 ovarian
  GI50: 1.75 µM
  TGI: > 100 µM
UACC-62 melanoma
  GI50: < 0.01 µM
  TGI: > 100 µM
HOP-62 NSCLC
  GI50: < 0.0199 µM
  TGI: > 100 µM
SN12C renal
  GI50: < 0.015 µM
  TGI: > 100 µM
K-562 leukemia
  GI50: < 0.01 µM
  TGI: > 100 µM
A549 NSCLC
  GI50: < 0.0132 µM
  TGI: > 100 µM
LOX IMVI melanoma
  GI50: < 0.01 µM
  TGI: > 100 µM
OVCAR-8 ovarian
  GI50: < 0.01 µM
  TGI: < 0.01 µM
MDA-MB-435
  GI50: < 0.01 µM
  TGI: < 0.01 µM
IGROV1 ovarian
  GI50: < 0.0108 µM
  TGI: > 100 µM
HCT-15 colon
  GI50: < 0.0103 µM
  TGI: > 100 µM
OVCAR-3 ovarian
  GI50: < 0.01 µM
  TGI: 0.12 µM
HOP-92 NSCLC
  TGI: > 100 µM
SF-295 CNS
  GI50: < 0.01 µM
  TGI: > 100 µM
SF-539 CNS
  GI50: < 0.01 µM
  TGI: < 0.01 µM
SW-620 colon
  GI50: < 0.0109 µM
  TGI: > 100 µM
RPMI-8226 leukemia
  GI50: < 0.01 µM
  TGI: > 100 µM
HT29 colon
  GI50: < 0.01 µM
HCT-116 colon
  GI50: < 0.01 µM
  TGI: > 100 µM
UACC-257 melanoma
  GI50: 1.87 µM
  TGI: > 100 µM
MOLT-4 leukemia
  GI50: < 0.0168 µM
  TGI: > 100 µM
MALME-3M melanoma
  TGI: > 100 µM
HS 578T breast
  GI50: < 0.0111 µM
  TGI: > 100 µM
MDA-MB-231 breast
  GI50: < 0.0162 µM
  TGI: > 100 µM
NCI/ADR-RES ovarian
  GI50: < 0.0139 µM
  TGI: 3.84 µM
SF-268 CNS
  GI50: < 0.0207 µM
  TGI: > 100 µM
HCC-2998 colon
  GI50: < 0.0158 µM
  TGI: > 100 µM
SR leukemia
  GI50: < 0.01 µM
ACHN renal
  GI50: < 0.01 µM
  TGI: > 100 µM
NCI-H460 lung
  GI50: < 0.0133 µM
  TGI: > 34.3 µM
DU-145 prostate
  GI50: < 0.0109 µM
SK-OV-3 ovarian
  GI50: < 0.0121 µM
  TGI: > 100 µM
OVCAR-5 ovarian
  GI50: < 0.0179 µM
  TGI: > 100 µM
NCI-H522 lung
  GI50: < 0.01 µM
  TGI: < 0.01 µM
A498 renal
  GI50: > 100 µM
  TGI: > 100 µM
786-0 renal
  GI50: < 0.0178 µM
  TGI: > 100 µM
U251 CNS
  GI50: < 0.01 µM
  TGI: > 100 µM
NCI-H226 lung
  GI50: < 0.01 µM
  TGI: > 100 µM
UO-31 renal
  GI50: < 0.014 µM
  TGI: > 100 µM
SK-MEL-28 melanoma
  GI50: 1.7 µM
  TGI: > 100 µM
EKVX NSCLC
  TGI: > 100 µM
SNB-19 CNS
  GI50: < 0.0267 µM
  TGI: > 100 µM
SK-MEL-5 melanoma
  GI50: < 0.01 µM
  TGI: 0.0387 µM
PC-3 prostate
  GI50: < 0.01 µM
  TGI: > 100 µM
CCRF-CEM leukemia
  GI50: < 0.01 µM
  TGI: > 100 µM
TK-10 renal
  GI50: > 100 µM
  TGI: > 100 µM
